Laboratory results as given in patent publication US12678436B2, “Pharmaceutical composition for preventing or treating fibrosis” (Daewoong Pharmaceutical Co., Ltd., priority 2021, dated 2026).

Tests used:
[1] = system: animal model of pulmonary fibrosis; test: Inflammation cell count analysis in BALF; assay type: in vivo, mice; details: for Lymphocyte (BALF cell count) / Macrophage (BALF cell count) / Neutrophil (BALF cell count) / Total cell (BALF cell count): 21st day
Experimental: (§1) 70-100 μL of BLM solution (bleomycin 1-3 mg/kg) was administered to a lung of the acclimatized experimental animals using a catheter for 5 days or more. In accordance with the purpose of the test, the test drug was administered 7 days after BLM administration, and the drug was orally administered for 2 weeks until the 21st day of BLM administration. Body weight, SpO2, hydroxyproline, and inflammation cell counts were measured to determine the anti-fibrotic efficacy of the active component.
(§2) As a control group, Nintedanib (hereinafter ‘NIN’) and Pirfenidone (hereinafter ‘PID’), which are standard of care (hereinafter ‘SoC’) for idiopathic pulmonary fibrosis, were used. The effective dose of NIN used was confirmed through in vivo efficacy data in the literature published by Boehringer Ingelheim, which is a NIN development company, and the effective dose of PID was set in terms of mice based on in vivo efficacy (rat) data and 2-week repeated toxicity dose (rat) in FDA Pharmacology Review.
Since fibrosis is a chronic inflammatory disease characterized by excessive collagen deposition, the infiltration of inflammatory cells was analyzed to determine the degree of inflammation in the lung tissue.
At the sacrifice on the 21st day of administration, BALF (Bronchoalveolar lavage fluid) cells obtained through airway washing of mice were diluted with 1.05×PBS and attached to a slide, and then the slide was immersed and removed for 30 seconds in the order of 1, 2, 3 diff quick stain solution, and stained. It was counted based on 500 cells. Macrophages are the largest in size, mononuclear, and stained blue. Neutrophils and eosinophils form polynuclear cells, but eosinophils are stained red with eosin and distinguished from neutrophils. Lymphocytes have very less cytoplasm and are small in size as monocytes.

[2] = system: animal model of pulmonary fibrosis; test: Histopathology (Ashcroft score) analysis of lung tissue; assay type: in vivo, mice; details: for Fibrotic Index (±SEM): 21st day, 9 individuals
Experimental: as §1, §2
The degree of fibrosis and inflammation of the lung tissue were visually observed through a microscope, and the degree of fibrosis of lung tissue was measured with a Fibrotic Index according to normalized criteria. The higher the Fibrotic Index value, the more severe the degree and symptom of fibrosis. It is interpreted that as the value is lower, the symptom is relieved.
On the 21st day, lung tissue was separated and stained using H&E and MT stain, and observed at 200× magnification. The observed results were scored by Ashcroft (Hubner et al., 2008). The fibrotic index was calculated by dividing the sum of the adjusted Ashcroft field scores by the number of fields tested, and shown in Table 4 and FIG. 3.

[3] = Measurement of change in body weight in BLM-administered mice; assay type: in vivo; details: for change in body weight: 21st day
Experimental: as §1, §2
Body weight is an indirect indicator that can know the degree of improvement in the overall physical condition of the animal model. When the degree of weight loss is small, it can be inferred that the overall physical condition or symptoms of the disease are improved.
The body weight was measured using a scale on the 21st day when the administration was completed, and the results are shown in Table 6 and FIG. 5 below.

[4] = system: animal model of pulmonary fibrosis; test: Measurement of total collagen content in lung (INSOLUBLE Collagen Assay); assay type: in vivo, mice; details: for collagen content in lung (hydroxyproline ratio value compared with normal group): 21st day
Experimental: as §1, §2
Pulmonary fibrosis is the accumulation of collagen in the lungs to make it stiff. The main cause of pulmonary fibrosis is the accumulation of collagen, and the degree of progression of fibrosis can be predicted by measuring the collagen content in the lung tissue.
In this experimental example, analysis was performed using INSOLUBLE Collagen Assay (Biocolor, S2000). After sacrifice on the 21st day, the cryopreserved lung tissue was pulverized by adding 100 uL of Fragmentation Reagent, and then, 100 uL of 37% HCl was added and incubated at 65°C. for 3 hours. The contents of the tube were shaken at 30 minute intervals to aid tissue disintegration. After centrifugation, the concentration was adjusted to 100 μL and collagen staining was proceeded to prepare a sample. Absorbance was measured at 560 nm.

[5] = system: animal model of pulmonary fibrosis; test: Lung function evaluation (SpO2) in BLM-administered mice; assay type: in vivo; details: for SpO2: 2 weeks, 21st day after BLM
Experimental: as §1, §2
This lung function evaluation is the most direct and important evaluation index that has the greatest influence on the symptoms and quality of life of patients with pulmonary fibrosis, and is an experiment that can most directly show the effect of improving lung function in an animal model of pulmonary fibrosis by measuring the oxygen concentration in the body.
On the 21st day, it was measured with a SpO2 measuring device (Berry, Veterinary Pulse Oximeter) via the abdominal side of the mouse, and the results are shown in Table 2 and FIG. 1.

healthy adults = test: Human administration safety/drug tolerance; assay type: in vivo
Experimental: (§3) The formulation used in the clinical trial was prepared in the same manner as in Preparation Examples 1 and 2.
The safety and drug resistance of the compound of the present invention during administration to humans was confirmed in the same manner as in Experimental Example 4.

ICR mice = test: 2-week repeated dose toxicity test in mice; assay type: in vivo; details: for SPLEEN % to BODY WEIGHT / SPLEEN weight / THYMUS % to BODY WEIGHT / THYMUS weight: 2 weeks, male ICR mice
Experimental: The active component was orally administered to acclimatized ICR mice for 7 days or more for 2 weeks.
After administration for 2 weeks, autopsies were performed on all animals. At autopsy, the weight of each organ was measured.

[6] = Human pharmacokinetics, multiple administration (MAD), Day 14; assay type: in vivo; details: for Accumulation ratio based on AUCT: Day 14, N = 6; for AUC(0-t): human, plasma, oral
Experimental: as §3

[7] = Pharmacokinetic test after single oral administration in ICR mice; assay type: in vivo; details: mouse, blood; ICR mice (male), single oral 10 mg/kg, saline
Experimental: The pharmacokinetic parameters were calculated using Excel® and WinNonlin6.1 software for the blood drug concentration according to the change over time obtained through LC-MS/MS, and changes in the blood concentration of the active component are shown in Table 9 and FIG. 6.

[8] = Human pharmacokinetics, single administration (SAD); assay type: in vivo; details: median; healthy adults, single oral 500 mg, enteric coated tablet, N = 6
Experimental: as §3

## COC(=O)c1ccc2c(c1)NC(=O)/C2=C(\Nc1ccc(N(C)C(=O)CN2CCN(C)CC2)cc1)c1ccccc1 [Nintedanib, reference compound]
[1]; Nintedanib 60 mg/kg oral
  Lymphocyte (BALF cell count): 0.68
  Macrophage (BALF cell count): 5.61
  Neutrophil (BALF cell count): 1.29
  Total cell (BALF cell count): 7.57
[2]; Nintedanib 60 mg/kg oral
  Fibrotic Index (±SEM): 3.1 (±0.6)
[3]; Nintedanib 60 mg/kg oral
  change in body weight: −19.44
[4]; Nintedanib 60 mg/kg oral
  collagen content in lung (hydroxyproline ratio value compared with normal group): 239.78
[5]; Nintedanib 60 mg/kg oral
  SpO2: 78.67

## Cc1ccc(=O)n(-c2ccccc2)c1 [Pirfenidone, reference compound]
[1]; Pirfenidone 200 mg/kg oral
  Lymphocyte (BALF cell count): 0.46
  Macrophage (BALF cell count): 5.01
  Neutrophil (BALF cell count): 0.68
  Total cell (BALF cell count): 6.14
[2]; Pirfenidone 200 mg/kg oral
  Fibrotic Index (±SEM): 4.1 (±0.3)
[3]; Pirfenidone 200 mg/kg oral
  change in body weight: −14.67
[4]; Pirfenidone 200 mg/kg oral
  collagen content in lung (hydroxyproline ratio value compared with normal group): 177.44
[5]; Pirfenidone 200 mg/kg oral
  SpO2: 82.00

## O[C@H]1CCCN[C@@H]1CCCn1cnc2c(Cl)c(Cl)ccc21 [Active component]
Healthy adults; 72 healthy adults, single 100-600 mg and multiple 25-200 mg twice a day
  serious abnormal signs or side effects in clinical trial: no serious abnormal signs or side effects
Healthy adults; single administration, healthy adults
  most frequent adverse reactions: gastrointestinal adverse events including nausea, vomiting, diarrhea and abdominal pain
[1]; 10 mg/kg
  number of Neutrophil cells decreased compared to Vehicle: ≥ 20%
  total cell level improved compared to Vehicle: ≥ 20%
[1]; 30 mg/kg
  number of Neutrophil cells decreased compared to Vehicle: ≥ 60%
  total cell level improved compared to Vehicle: ≥ 30%
[1]; Active component 3 mg/kg oral
  Lymphocyte (BALF cell count): 0.79
  Macrophage (BALF cell count): 7.80
  Neutrophil (BALF cell count): 1.74
  Total cell (BALF cell count): 10.32
[1]; Active component 10 mg/kg oral
  Lymphocyte (BALF cell count): 0.51
  Macrophage (BALF cell count): 5.60
  Neutrophil (BALF cell count): 1.54
  Total cell (BALF cell count): 7.66
[1]; Active component 30 mg/kg oral
  Lymphocyte (BALF cell count): 0.46
  Macrophage (BALF cell count): 4.91
  Neutrophil (BALF cell count): 0.82
  Total cell (BALF cell count): 6.19
[2]; 10 mg/kg
  tissue improvement effect compared with NIN and PID: tissue improvement effect equivalent to or greater than that of NIN
[2]; 30 mg/kg
  tissue improvement effect compared with NIN and PID: tissue improvement effect equivalent to or greater than that of NIN
[2]; Active component 3 mg/kg oral
  Fibrotic Index (±SEM): 4.6 (±0.3)
[2]; Active component 10 mg/kg oral
  Fibrotic Index (±SEM): 2.7 (±0.6)
[2]; Active component 30 mg/kg oral
  Fibrotic Index (±SEM): 2.8 (±0.4)
ICR mice; 30 mg/kg/day oral
  SPLEEN % to BODY WEIGHT: 0.22%
  SPLEEN weight: 0.059
  THYMUS % to BODY WEIGHT: 0.10%
  THYMUS weight: 0.026
ICR mice; 60 mg/kg/day oral
  SPLEEN % to BODY WEIGHT: 0.25%
  SPLEEN weight: 0.070
  THYMUS % to BODY WEIGHT: 0.11%
  THYMUS weight: 0.029
ICR mice; 30, 60, 120→90 mg/kg/day oral, ICR mice
  toxicity / abnormal symptoms after repeated administration for 2 weeks: No toxicity or significant abnormal symptoms
ICR mice; 120→90 mg/kg/day oral
  SPLEEN % to BODY WEIGHT: 0.17%
  SPLEEN weight: 0.046
  THYMUS % to BODY WEIGHT: 0.05%
  THYMUS weight: 0.015
ICR mice; administration group of 30 mg/kg/day or more
  organ weight of spleen and thymus: slight weight loss tendency
[6]; 25 mg tablet twice a day
  Accumulation ratio based on AUCT: 1.94
[6]; 50 mg tablet twice a day
  Accumulation ratio based on AUCT: 2.33
[6]; 100 mg tablet twice a day, Day 14, 12 hour dosing interval, N = 6
  AUCT: 617.40 ng·h/mL
[6]; 100 mg tablet twice a day
  Accumulation ratio based on AUCT: 1.88
[6]; 200 mg tablet twice a day
  Accumulation ratio based on AUCT: 3.75
[6]; 25 mg tablet twice a day, Day 14, 12 hour dosing interval, N = 6
  AUC(0-t): 183 ng·h/mL
[6]; 50 mg tablet twice a day, Day 14, 12 hour dosing interval, N = 6
  AUC(0-t): 429 ng·h/mL
[6]; 200 mg tablet twice a day, Day 14, 12 hour dosing interval, N = 6
  AUC(0-t): 3010 ng·h/mL
[3]; 10 mg/kg
  degree of body weight loss compared with Vehicle group: improved
[3]; 30 mg/kg
  degree of body weight loss compared with Vehicle group: improved
[3]; Active component 3 mg/kg oral
  change in body weight: −22.44
[3]; Active component 10 mg/kg oral
  change in body weight: −19.11
[3]; Active component 30 mg/kg oral
  change in body weight: −16.78
[4]; 10 mg/kg
  content of collagen in the lung compared to Vehicle: significantly reduced
[4]; 30 mg/kg
  content of collagen in the lung compared to Vehicle: significantly reduced
[4]; Active component 3 mg/kg oral
  collagen content in lung (hydroxyproline ratio value compared with normal group): 253.56
[4]; Active component 10 mg/kg oral
  collagen content in lung (hydroxyproline ratio value compared with normal group): 217.22
[4]; Active component 30 mg/kg oral
  collagen content in lung (hydroxyproline ratio value compared with normal group): 171.33
[7]
  AUC: 1190 ng·h/mL
[8]
  tmax: 3.01 h
[5]; 10 mg/kg
  oxygen permeation function improved compared with Vehicle: ≥ 18%
[5]; 30 mg/kg
  oxygen permeation function improved compared with Vehicle: ≥ 28%
[5]; Active component 3 mg/kg oral
  SpO2: 75.00
[5]; Active component 10 mg/kg oral
  SpO2: 77.89
[5]; Active component 30 mg/kg oral
  SpO2: 81.33
